The test system of series [1] is food intake in C57/BL6 mice. The series can be described thus: Acute feeding studies (food intake) in overnight-fasted mice. The class given is in vivo, mouse. How it is done:
All animal procedures were approved by the British Home Office, under the United Kingdom Animal (Scientific Procedures) Act 1986 (project license, 70/6402). Adult male C57/BL6 mice (Harlan, Wyton, UK) weighing 20 to 25 g were maintained in individual cages under controlled temperature (21°C to 23°C) and light (12-hour light/dark cycle, with lights on at 7:00 AM). The mice had ad libitum access to water and normal chow RM1 (Special Diet Services, Devon, UK), unless stated otherwise. For acclimatization, the mice were regularly handled and given 2 sham subcutaneous (SC) and/or intraperitoneal (IP) injections of saline. Before each feeding study, the mice were fasted overnight, and the injections were performed during the early light phase (8:00 to 10:00 AM). The mice were stratified by body weight. To investigate the anorectic effects of DPPIV-resistant analogs, the mice were stratified into treatment groups and administered a SC injection (maximum volume, 100 µL) of vehicle, PP, PP3-36, PP2-36, or PP-Ala0 (n = […]). Food intake was measured at 1, 2, 4, and 8 hours after injection to compare the peptides with short half-lives (PP and its endogenous degradation product, PP3-36) and, in a separate experiment, at 24 hours after injection for peptides with modifications (PP-Ala0 and PP2-36, using PP as the comparator). A PP analog with global modifications for enzyme resistance (PP-x) was also investigated and administered as a SC injection (maximum volume, 100 µL) at a high and low dose (n = 9). Food intake was measured at 1, 2, 4, and 8 hours after injection. […] This dose of phosphoramidon was sufficient to inhibit NEP activity ([30]). Food intake was measured at 1, 2, 4, 8, 24, and 48 hours after injection.

The conditions of series [2]: human, in vivo; cited from earlier work. How it is done: Administration of PP to humans is not associated with adverse side effects such as nausea, unlike GLP-1 analogs and, as such, is potentially a useful agent for the regulation of food intake and the treatment of obesity. PP is a relatively small peptide (4.2 kDa) and is therefore susceptible to a number of degradative enzymes and other eliminating mechanisms. PP consequently has a short circulating half-life of approximately 7 minutes in humans ([6]). This short half-life limits the use of native PP as a practical obesity treatment. To the best of our knowledge, the mechanisms for the degradati ...

Another series concerns the target T1, mouse Y4 receptor (Mus musculus, UniProt Q61041).
T1 construct: expressed in transfected cells; host or cells: HEK293
The series can be described thus: Y4 receptor binding assay (125I-PP competition). The conditions noted are these: membranes of HEK293 cells overexpressing mouse Y4 receptor; competition with 125I-PP (100 pM); 90 min, 4°C; mean ± SEM of three to five separate experiments; read-out: IC50 (half maximal inhibitory concentration), Y4 receptor binding affinity. As to the method: Transfected HEK293 cells overexpressing the mouse Y4 receptor were prepared and binding assays performed as previously described ([29]). Isolated cell membranes (protein concentration, 1 to 2 µg/mL) were incubated for 90 minutes in siliconized polypropylene tubes together with ^125I-PP [1 kBq (100 pM)] and a dose response of unlabeled competing peptides at 4°C in binding buffer [20 mM HEPES (pH 7.4), 1 mM MgCl2, 5 mM CaCl2, 0.1% bovine serum albumin, and protease inhibitors (0.2 mM phenylmethylsulfonyl fluoride, 0.1 mM Diprotin A, and 10 µM phosphoramidon ( all from Sigma-Aldrich)] in a final assay volume of 0.5 mL. PP was iodinated as previously described ([8]) using ^125I from GE Healthcare Life Sciences (Amersham, UK). Pelleted membranes were washed with 5 mL ice-cold assay buffer, and the membranes were centrifuged at 15,874g for 3 minutes at 4°C, as described, to separate bound and free label. Bound radioactivity was measured using a γ-counter (NE 1600; NE Technology Ltd, Reading, UK). Specific binding was calculated as the difference between the amount of ^125I-PP bound in the absence (total binding) and presence of 5 μM unlabeled competing peptide (nonsaturable binding). All curves were performed with points in triplicate. Half maximal inhibitory concentration values were calculated using Prism, version 5.01 (GraphPad Software Inc., San Diego, CA) using a three-parameter logistic equation for the nonlinear regression fit: Y = bottom + (top − bottom)/1 + 10^(LogEC50 − X), where EC50 is the half maximal effective concentration.

A short description of a further series: in vivo. Set-up: species or system mouse. Conditions: for level at time molar at 1.5 h: male, C57BL/6, mouse, plasma level of PP at 90 minutes. As to the method:
The mice were divided into four treatment groups according to body weight. A protocol similar to that used for the phosphoramidon feeding study was used, with an IP injection, followed by a SC injection 15 minutes later (maximum volume, 50 µL for each injection) of phosphoramidon (0, 7, 20, and 60 mg/kg IP), followed by PP (150 nmol/kg SC in saline; n = 4 to 6; […]). […] Additional mice (n = 2) underwent overnight fasting and were culled at 0 minutes after injection of the control substances (saline SC and vehicle IP) for measurement of the baseline levels of circulating PP. The blood was immediately removed via cardiac puncture and centrifuged at 6000 rpm (Sigma 3K18; 12348 rotor; Sigma-Aldrich) for 10 minutes. The plasma was stored at −20°C until analysis. The plasma samples were assayed using an established in-house PP RIA ([8]). The anti-PP antibody was elevated in rabbit against human PP and recognized PP (and other truncated forms) but not in other PP-fold peptides or gastrointestinal peptides. ^125I-PP was prepared using the iodogen method and purified using HPLC. The assay was performed in duplicate in a total volume of 700 µL of 0.06 M phosphate buffer (pH 7.35) containing 0.3% bovine serum albumin. The samples were incubated for 3 days at 4°C before separation of free and antibody-bound ^125I-PP using dextran-coated charcoal. The sensitivity was ≤5 fmol/tube. The intra-assay coefficient of variation was 6%.

T1 sequence (Q61041 whole entry): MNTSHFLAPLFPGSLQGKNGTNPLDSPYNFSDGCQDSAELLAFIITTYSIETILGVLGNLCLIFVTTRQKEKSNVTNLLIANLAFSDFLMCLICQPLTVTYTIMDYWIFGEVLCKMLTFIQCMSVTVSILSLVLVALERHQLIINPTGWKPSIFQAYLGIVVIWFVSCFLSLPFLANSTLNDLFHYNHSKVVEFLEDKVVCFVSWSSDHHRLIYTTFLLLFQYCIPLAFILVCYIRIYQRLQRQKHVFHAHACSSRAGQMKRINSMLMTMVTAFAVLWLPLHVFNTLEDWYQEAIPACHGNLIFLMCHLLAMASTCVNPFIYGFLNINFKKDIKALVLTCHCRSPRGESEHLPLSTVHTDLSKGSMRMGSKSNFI

As for `CC[C@H](C)[C@H](NC(=O)[C@H](Cc1ccc(O)cc1)NC(=O)[C@H](CCCNC(=N)N)NC(=O)[C@H](CCCNC(=N)N)NC(=O)[C@H](CC(C)C)NC(=O)[C@H](CC(=O)O)NC(=O)[C@H](C)NC(=O)[C@H](C)NC(=O)[C@H](Cc1ccc(O)cc1)NC(=O)[C@H](CCC(N)=O)NC(=O)[C@H](C)NC(=O)[C@H](CCSC)NC(=O)[C@H](CCC(N)=O)NC(=O)[C@H](CCC(=O)O)NC(=O)[C@@H]1CCCN1C(=O)[C@@H](NC(=O)[C@H](C)NC(=O)[C@H](CC(N)=O)NC(=O)[C@H](CC(=O)O)NC(=O)CNC(=O)[C@@H]1CCCN1C(=O)[C@H](Cc1ccc(O)cc1)NC(=O)[C@@H](NC(=O)[C@@H]1CCCN1C(=O)[C@H](CCC(=O)O)NC(=O)[C@H](CC(C)C)NC(=O)[C@@H]1CCCN1C(=O)[C@H](C)N)C(C)C)[C@@H](C)O)C(=O)N[C@@H](CC(N)=O)C(=O)N[C@@H](CCSC)C(=O)N[C@@H](CC(C)C)C(=O)N[C@H](C(=O)N[C@@H](CCCNC(=N)N)C(=O)N1CCC[C@H]1C(=O)N[C@@H](CCCNC(=N)N)C(=O)N[C@@H](Cc1ccc(O)cc1)C(N)=O)[C@@H](C)O` [PP, Pancreatic polypeptide], the “cumulative food intake at 8 hours (0- to 8-hour interval), low dose” value in series [1] (25 nmol/kg SC, overnight-fasted C57BL/6 mice, n = 9, mean ± SEM) was 2.36 ± 0.18 g. Further, the “inhibition of food intake over 24 hours vs saline” value in series [1] (150 nmol/kg SC, overnight-fasted C57/BL6 mice, 0 to 24 hours, n = 7) is given as “did not”. Besides, the “cumulative food intake 0 to 8 hours” value in series [1] (150 nmol/kg SC, overnight-fasted C57/BL6 mice, n = 7, mean ± SEM) is 0.93 ± 0.10 g. The “cumulative food intake at 48 hours, PP alone” value in series [1] (PP 150 nmol/kg SC after vehicle IP, phosphoramidon study, fasted mice, mean ± SEM) was determined as 6.52 ± 0.14 g. Further, the “food intake at 4 hours, PP alone” value in series [1] (PP 150 nmol/kg SC, sitagliptin study, fasted mice, mean ± SEM) is recorded as 0.91 ± 0.04 g. Further, the circulating half-life entry in series [2] is recorded as “approximately 7 minutes”. In addition, the IC50 on mouse Y4 receptor is 0.26 ± 0.04 nM. For the same molecule, the level at time molar at 1.5 h was determined as 1.92 ± 0.134 nM in the series “in vivo” (sc, 150 nmol/kg, PP alone); 5.46 ± 0.807 nM in the series “in vivo” (sc, with phosphoramidon 7 mg/kg); 5.3 ± 0.461 nM in the series “in vivo” (sc, with phosphoramidon 20 mg/kg); 5.53 ± 0.348 nM in the series “in vivo” (sc, with phosphoramidon 60 mg/kg). Besides, the “plasma levels of PP at 45 minutes, alone vs combined with any dose of phosphoramidon” value in the series “in vivo” (mouse) is listed as “did not differ significantly”. For the same molecule, the “decrease of plasma level (peptide cleared) between 45 and 90 minutes after injection” value in the series “in vivo” (mouse, sc) is around 80%. For the same molecule, the level at time molar at 0.5 h in “in vivo” (mouse, sc, 100 nmol/kg, plasma peptide level at 30 minutes after injection) is 8.74 ± 0.744 nM. Also, the level at time molar at 2 h in “in vivo” (mouse, sc, 100 nmol/kg, plasma peptide level at 120 minutes after injection) came to 2.11 ± 0.224 nM.

The values above are taken from PMC5460925, “Degradation Paradigm of the Gut Hormone, Pancreatic Polypeptide, by Hepatic and Renal Peptidases” (Endocrinology, 2017).
